The values that follow come from patent US20230257372A1 (CHONG KUN DANG PHARMACEUTICAL CORP., priority 2020, published 2023).

For assay [1], the target named is T1, human recombinant HDAC1 (Homo sapiens, UniProt Q13547).
T1 construct: purchased Enzo Life Science, Inc. BML-SE456
Nature of the assay: HDAC1 enzyme activity inhibition (HDAC Fluorimetric Drug Discovery Kit). Format: biochemical. The note with it: human recombinant HDAC1; IC50 calculated with GraphPad Prism; read-out: HDAC1. The procedure, abridged: (§1)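 Each isoform is run in the same format: compound dilutions (5-fold steps), 10 μM substrate, […] enzyme, one hour at 30° C, then 30 minutes with developer before fluorescence readout.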

Assay [2] deals with T2, human recombinant HDAC6 (Homo sapiens, UniProt Q9UBN7).
T2 construct: purchased Calbiochem Inc. 382180
T2 sequence (Q9UBN7 1-1215): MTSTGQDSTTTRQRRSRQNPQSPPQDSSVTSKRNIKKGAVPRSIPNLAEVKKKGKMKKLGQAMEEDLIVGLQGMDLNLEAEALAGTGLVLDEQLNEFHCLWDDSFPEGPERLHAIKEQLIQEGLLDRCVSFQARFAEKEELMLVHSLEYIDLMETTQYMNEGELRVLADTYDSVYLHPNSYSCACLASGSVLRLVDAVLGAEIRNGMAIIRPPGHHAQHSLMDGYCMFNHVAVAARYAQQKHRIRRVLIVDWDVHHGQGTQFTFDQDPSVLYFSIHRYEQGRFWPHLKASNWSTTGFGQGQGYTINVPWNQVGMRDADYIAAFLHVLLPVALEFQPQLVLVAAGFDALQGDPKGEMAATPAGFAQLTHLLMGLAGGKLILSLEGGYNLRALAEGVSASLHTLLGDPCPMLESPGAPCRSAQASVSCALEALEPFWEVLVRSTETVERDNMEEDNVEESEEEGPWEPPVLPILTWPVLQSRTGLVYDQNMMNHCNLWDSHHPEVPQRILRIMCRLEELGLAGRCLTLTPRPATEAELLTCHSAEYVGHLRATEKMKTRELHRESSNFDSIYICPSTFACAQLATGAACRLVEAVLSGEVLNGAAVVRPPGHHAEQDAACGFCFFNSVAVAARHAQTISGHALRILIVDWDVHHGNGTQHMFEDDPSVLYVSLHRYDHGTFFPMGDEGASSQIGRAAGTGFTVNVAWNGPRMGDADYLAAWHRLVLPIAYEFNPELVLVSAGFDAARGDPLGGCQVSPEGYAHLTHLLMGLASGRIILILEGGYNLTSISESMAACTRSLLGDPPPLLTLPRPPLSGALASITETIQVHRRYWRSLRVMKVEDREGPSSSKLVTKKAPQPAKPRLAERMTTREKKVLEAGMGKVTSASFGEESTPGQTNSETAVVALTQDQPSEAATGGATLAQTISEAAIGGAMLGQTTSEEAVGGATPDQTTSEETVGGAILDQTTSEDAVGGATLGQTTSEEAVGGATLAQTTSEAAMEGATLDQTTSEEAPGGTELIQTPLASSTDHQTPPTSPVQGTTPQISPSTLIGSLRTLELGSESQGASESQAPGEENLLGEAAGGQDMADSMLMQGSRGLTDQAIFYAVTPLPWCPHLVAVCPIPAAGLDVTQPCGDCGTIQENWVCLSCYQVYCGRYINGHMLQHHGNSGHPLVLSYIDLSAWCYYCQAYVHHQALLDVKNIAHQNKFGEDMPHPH
The assay is described as follows: HDAC6 enzyme activity inhibition (HDAC Fluorimetric Drug Discovery Kit). The note with it: for HDAC6 selectivity (fold): HDAC1 IC50 / HDAC6 IC50; for IC50: human recombinant HDAC6, IC50 calculated with GraphPad Prism. Format: biochemical. The procedure, abridged:
as §1

Bounds are passed on as bounds.

T1 sequence (Q13547 whole entry): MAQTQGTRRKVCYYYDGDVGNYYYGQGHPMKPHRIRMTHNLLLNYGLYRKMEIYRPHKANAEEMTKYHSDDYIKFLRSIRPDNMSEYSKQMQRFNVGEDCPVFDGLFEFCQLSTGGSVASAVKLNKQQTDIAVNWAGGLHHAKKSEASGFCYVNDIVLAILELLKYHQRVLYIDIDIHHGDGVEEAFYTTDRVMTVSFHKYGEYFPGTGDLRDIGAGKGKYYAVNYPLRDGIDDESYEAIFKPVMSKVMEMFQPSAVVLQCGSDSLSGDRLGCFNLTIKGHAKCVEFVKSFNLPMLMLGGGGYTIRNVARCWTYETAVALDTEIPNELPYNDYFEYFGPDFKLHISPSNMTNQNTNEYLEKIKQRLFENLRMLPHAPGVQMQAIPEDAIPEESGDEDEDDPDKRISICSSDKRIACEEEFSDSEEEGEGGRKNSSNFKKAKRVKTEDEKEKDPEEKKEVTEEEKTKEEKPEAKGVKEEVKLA

For `CN1CCC(Cc2cn(Cc3ccc(-c4nnc(C(F)F)o4)cn3)nn2)CC1` [Compound 4014, 2-(difluoromethyl)-5-(6-((4-((1-methylpiperidin-4-yl)methyl)-1H-1,2,3-triazol-1-yl)methyl)pyridin-3-yl)-1,3,4-oxadiazole], the IC50 in assay [1] was greater than 50000 nM. Further, in assay [2], the “HDAC6 selectivity (fold)” value is recorded as 246 fold and the IC50 is 203 nM.
For the compound `CC(=O)N1CCC(Cc2cn(Cc3ccc(-c4nnc(C(F)F)o4)cn3)nn2)CC1` [Compound 4015, 1-(4-((1-((5-(5-(difluoromethyl)-1,3,4-oxadiazol-2-yl)pyridin-2-yl)methyl)-1H-1,2,3-triazol-4-yl)methyl)piperidin-1-yl)ethan-1-one], the IC50 in assay [1] was greater than 50000 nM; in assay [2] it was 471 nM. In assay [2], the “HDAC6 selectivity (fold)” value is 106 fold.
For `FC(F)c1nnc(-c2ccc(Cn3cc(-c4cccc5[nH]cc(CN6CCOCC6)c45)nn3)nc2)o1` [Compound 4023, 4-((4-(1-((5-(5-(difluoromethyl)-1,3,4-oxadiazol-2-yl)pyridin-2-yl)methyl)-1H-1,2,3-triazol-4-yl)-1H-indol-3-yl)methyl)morpholine], the IC50 in assay [1] was greater than 50000 nM. In assay [2], the “HDAC6 selectivity (fold)” value was 32 fold and the IC50 is 1560 nM.
With `FC(F)c1nnc(-c2ccc(Cn3cc([C@@H]4CCCN4C4COC4)nn3)nc2)o1` [Compound 4026, (S)-2-(difluoromethyl)-5-(6-((4-(1-(oxetan-3-yl)pyrrolidin-2-yl)-1H-1,2,3-triazol-1-yl)methyl)pyridin-3-yl)-1,3,4-oxadiazole], in assay [1], the IC50 is greater than 50000 nM. In assay [2], the “HDAC6 selectivity (fold)” value turned out to be 189 fold and the IC50 is 263 nM.
The like results for `FC(F)c1nnc(-c2ccc(Cn3cc([C@@H]4CCCN4C4CC5(COC5)C4)nn3)nc2)o1` [Compound 4027, (S)-2-(6-((4-(1-(2-oxaspiro[3.3]heptan-6-yl)pyrrolidin-2-yl)-1H-1,2,3-triazol-1-yl)methyl)pyridin-3-yl)-5-(difluoromethyl)-1,3,4-oxadiazole] were, in that order, greater than 50000 nM, 10 fold and 5000 nM.
The matching figures for `COC(=O)N1CCC[C@H]1c1cn(Cc2ccc(-c3nnc(C(F)F)o3)cn2)nn1` [Compound 4028, methyl (S)-2-(1-((5-(5-(difluoromethyl)-1,3,4-oxadiazol-2-yl)pyridin-2-yl)methyl)-1H-1,2,3-triazol-4-yl)pyrrolidin-1-carboxylate]: greater than 50000 nM, 238 fold and 210 nM.
The like results for `CC(=O)N1CCC[C@H]1c1cn(Cc2ccc(-c3nnc(C(F)F)o3)cn2)nn1` [Compound 4029, (S)-1-(2-(1-((5-(5-(difluoromethyl)-1,3,4-oxadiazol-2-yl)pyridin-2-yl)methyl)-1H-1,2,3-triazol-4-yl)pyrrolidin-1-yl)ethan-1-one] were, in that order, greater than 50000 nM, 239 fold and 208 nM.
As for `CN1CCc2cc(-c3cn(Cc4ccc(-c5nnc(C(F)F)o5)cn4)nn3)ccc2C1` [Compound 4051, 2-(difluoromethyl)-5-(6-((4-(2-methyl-1,2,3,4-tetrahydroisoquinolin-6-yl)-1H-1,2,3-triazol-1-yl)methyl)pyridin-3-yl)-1,3,4-oxadiazole], the IC50 in assay [1] is greater than 50000 nM. In assay [2], the “HDAC6 selectivity (fold)” value is 1623 fold and the IC50 is 30.8 nM.
The matching figures for `CC(C)N1CCc2cc(-c3cn(Cc4ccc(-c5nnc(C(F)F)o5)cn4)nn3)ccc2C1` [Compound 4053, 2-(difluoromethyl)-5-(6-((4-(2-isopropyl-1,2,3,4-tetrahydroisoquinolin-6-yl)-1H-1,2,3-triazol-1-yl)methyl)pyridin-3-yl)-1,3,4-oxadiazole]: greater than 50000 nM, 880 fold and 56.8 nM.
The like results for `FC(F)c1nnc(-c2ccc(Cn3cc(-c4ccc5c(c4)CCN(C4CCC4)C5)nn3)nc2)o1` [Compound 4054, 2-(6-((4-(2-cyclobutyl-1,2,3,4-tetrahydroisoquinolin-6-yl)-1H-1,2,3-triazol-1-yl)methyl)pyridin-3-yl)-5-(difluoromethyl)-1,3,4-oxadiazole] were, in that order, greater than 50000 nM, 1094 fold and 45.7 nM.
The like results for `FC(F)c1nnc(-c2ccc(Cn3cc(-c4cccc5cc[nH]c45)nn3)nc2)o1` [Compound 4071, 2-(6-((4-(1H-indol-7-yl)-1H-1,2,3-triazol-1-yl)methyl)pyridin-3-yl)-5-(difluoromethyl)-1,3,4-oxadiazole] were, in that order, greater than 50000 nM, 347 fold and 144 nM.
Consider `FC(F)c1nnc(-c2ccc(Cn3cc(-c4ccc5sccc5c4)nn3)nc2)o1` [Compound 4074, 2-(6-((4-(benzo[b]thiophen-5-yl)-1H-1,2,3-triazol-1-yl)methyl)pyridin-3-yl)-5-(difluoromethyl)-1,3,4-oxadiazole], for which the IC50 in assay [1] is greater than 50000 nM. Further, in assay [2], the “HDAC6 selectivity (fold)” value is recorded as 602 fold and the IC50 is 83 nM.
The like results for `Fc1cc(-c2nnc(C(F)F)o2)ccc1Cn1cc(-c2ccc3cc[nH]c3c2)nn1` [Compound 4077, 2-(4-((4-(1H-indol-6-yl)-1H-1,2,3-triazol-1-yl)methyl)-3-fluorophenyl)-5-(difluoromethyl)-1,3,4-oxadiazole] were, in that order, greater than 50000 nM, 591 fold and 84.5 nM.
As for `FC(F)c1nnc(-c2ccc(Cn3cc(-c4cccc5[nH]ccc45)nn3)cc2)o1` [Compound 4078, 2-(4-((4-(1H-indol-4-yl)-1H-1,2,3-triazol-1-yl)methyl)phenyl)-5-(difluoromethyl)-1,3,4-oxadiazole], the IC50 in assay [1] was greater than 50000 nM. Also, in assay [2], the “HDAC6 selectivity (fold)” value is reported as 1424 fold and the IC50 was 35.1 nM.
The like results for `FC(F)c1nnc(-c2ccc(Cn3cc(-c4cccc5cc[nH]c45)nn3)cc2)o1` [Compound 4081, 2-(4-((4-(1H-indol-7-yl)-1H-1,2,3-triazol-1-yl)methyl)phenyl)-5-(difluoromethyl)-1,3,4-oxadiazole] were, in that order, greater than 50000 nM, 478 fold and 105 nM.
The like results for `Fc1cc(-c2nnc(C(F)F)o2)ccc1Cn1cc(-c2cccc3cc[nH]c23)nn1` [Compound 4082, 2-(4-((4-(1H-indol-7-yl)-1H-1,2,3-triazol-1-yl)methyl)-3-fluorophenyl)-5-(difluoromethyl)-1,3,4-oxadiazole] were, in that order, greater than 50000 nM, 349 fold and 143 nM.
The like results for `FC(F)c1nnc(-c2ccc(Cn3cc(-c4ccccc4N4CCOCC4)nn3)nc2)o1` [Compound 4104, 4-(2-(1-((5-(5-(difluoromethyl)-1,3,4-oxadiazol-2-yl)pyridin-2-yl)methyl)-1H-1,2,3-triazol-4-yl)phenyl)morpholin] were, in that order, 33000 nM, 500 fold and 66 nM.
